Assay results: patent EP2251010A1, “Use of thiabendazole and derivatives thereof for the therapy of neurological conditions” (Sygnis Bioscience GmbH & Co. KG, priority 2009, dated 2010)
Like-named read-outs stand apart in the source and are kept apart here.

Experiments:
neural stem cells = experiment: In vitro differentiation assay on adult neuronal stem cells (beta-III-tubulin promoter dual luciferase reporter); type: cell-based, Wistar rats
Excerpt: The neuroregenerative effect of the compounds according to the present invention can be assayed in vitro by measuring their stimulation of the differentiation of neuronal stem cells. Therefore, adult neuronal stem cells have to be isolated and subsequently cultivated in a suitable culture medium. After several passages in vitro the stem cells have to be co-transfected with a DNA construct coding for two discriminable reporter proteins one of them under the control of a constitutive promoter and the other under the control of a beta-III-tubulin promoter. The beta-III-tubulin promoter is induced during the process of neuronal stem cell differentiation; therefore the reporter protein under the control of this promoter serves as a marker for the stem cell differentiation in such an in vitro dual reporter assay (Schneider et al., J Clin Investigation 2005; 115:2083-2098). The person skilled in the art knows several suitable constitutive promoters such as the SV40-promoter, the TK-promoter, or the CMV-promoter. As discriminable reporter proteins for such a dual reporter assay one can use discriminable luciferases such as firefly luciferase and Renilla luciferase. The transfected cells have to be incubated with the test compound and with positive and negative controls for normalization and background correction. As a positive control compound one can use retinoic acid (Guan et al., Cell Tissue Res. 2001; 305:171-176; Jacobs et al., Proc. Natl. Acad. Sci. USA 2006; 103:3902-3907), a suitable negative control is the sham treatment of the cells. The neroregenerative activity of the test compound is determined as the ratio of the signal of the beta-III-tubulin promoter controlled reporter versus the signal of the constitutively expressed reporter and is expressed as fold from the control. This assay is suitable to assess the neuroregenerative activity of thiabendazole and derivatives thereof, but also can be used to screen for other potential neuroregenerative compounds. Preferably, such a screening can be used to test compounds which are already known to be suitable as a medicament in terms of its toxicology, bioavailability, solubility, stability etc.
In vitro differentiation assay on adult neuronal stem cells with thiabendazole Neural stem cells were isolated from the subventricular zone of 4 week-old male Wistar rats as described (Maurer et al, Proteome Sci. 2003; 1:4). Cells were cultivated in Neurobasal medium (Invitrogen) supplemented with B27 (Invitrogen), 2mM L-glutamine, 100units/ml penicillin, 100units/ml streptomycin, 20ng/ml […] (EGF), 20ng/ml fibroblast growth factor-2 (FGF-2), and 2µg/ml heparin. Once a week the neural stem cells were passaged and experiments were performed after 4 weeks in vitro. For DNA transfection, the cells were dissociated and plated on poly-L-ornithin/laminin-coated 96-well plates at a density of 50.000 cells/well. Cotransfection with the pGL3-p-βIII-tubulin vector (100ng/well) and the pRL SV40 vector (100ng/well) was carried out according to the FuGene6 Transfection protocol (Roche). The pRL SV40 vector (Promega) served as an internal control vector.
To amplify the class III β-tubulin gene promoter (fragment -450 - +54), rat genomic DNA was used as a template for PCR (Dennis et al., Gene 2002;294:269-277). The amplified fragment was inserted into the Mlu I/Xho I site of the pGL3-Basic firefly luciferase reporter vector (Promega) to generate the pGL3-p-βIII-tubulin experimental vector.
After overnight incubation, the plate was decanted and given in 8-fold replicates fresh medium containing thiabendazole (Sigma) or vehicle. As a positive control for in vitro differentiation, stem cells were treated by adding 1 µM retinoic acid (Sigma) to the medium missing the mitogens.
After 48hrs, the cells were harvested to prepare the cellular extracts for luciferase assay following the directions of the manufacturer (Promega). […]

primary cortical neurons = experiment: In vitro anti-apoptosis assay (Caspase-Glo 3/7) on primary cortical neurons with staurosporine; type: cell-based, Wistar rat; settings: sham 11 %
Excerpt: (§1) Neuroprotection is attainable via the inhibition of apoptosis of affected neurons. The anti-apoptotic effect of thiabendazole and its derivatives can be assayed in vitro by measuring the caspase-3 and caspase-7 activities. These members of the cysteine aspartic acid-specific protease (caspase) family play key effector roles in apoptosis in mammalian cells. Cortical neurons have to be isolated and subsequently cultivated in a suitable culture medium. […] Parallel approaches with staurosporine alone and sham treatment of the cells serve as […]. The assay allows evaluating whether the test compound can compensate either completely or partially for the apoptotic effect of staurosporine.
(§2) The neuroprotective effect of compounds can be assayed in vitro by measuring caspase-3 and caspase-7 activities. These members of the cysteine aspartic acid-specific protease (caspase) family play a key effector role in apoptosis in mammalian cells.
These cells were isolated from twelve to fourteen cortices dissected from Wistar rat embryos on E18. The tissue was dissociated using 0,25 mg/ml trypsin, 0,1 mg/ml EDTA (Sigma), 100 µg/ml DNase (Roche Diagnostics Corp.) in HBSS. The digestion was stopped using 3 parts MEM-medium containing 10 % fetal calf serum, 0,45 % D-(+)glucose, 1 mM sodium-pyruvate and 0,25 µM glutamate. The cells were singularized by 10 strokes with a burnished Pasteur-pipette. After centrifugation, the cell pellet was dissolved in 10 ml medium and plated at a density of 30000 cells per well on a 96-well plate coated with poly-L-lysine for caspase-assays. […] Incubation with staurosporine (SP; 0,5 µM) alone served as positive control and incubation with vehicle (sham) served as negative control.

SH-SY5Y cells [1] = experiment: In vitro anti-apoptosis assay (Caspase-Glo 3/7) on SH-SY5Y cells with staurosporine; type: cell-based, human; settings: for degree of apoptosis relative to the staurosporine control: SH-SY5Y cells, compound 1 µM plus staurosporine 0,5 µM, sham 26 %, Fig. 5
SH-SY5Y neuronal cells = experiment: In vitro viability assay (constitutive Renilla luciferase reporter); type: cell-based, human; settings: for viability of neuronal cells (Renilla luciferase activity): final concentration of 1 µM and of 10 µM, Fig. 7
Description: The viability assay allows for further assessment of test compounds regarding their effect on cells such as neurons. Therefore, a stably transfected cell line (e.g. SH-SY5Y cells) with a reporter construct (e.g. a luciferase construct) has to be incubated with the test compound and in parallel with positive and negative controls (e.g. staurosporine and sham, respectively). Subsequently, the signal generated by the reporter construct serves as a readout for the viability of the cells in the presence of the test compound. The assay enables the evaluation of potential neurotoxic effects of the test compound itself.
The effect of a compound on the viability of neuronal cells can be assayed in vitro by measuring the survival of neuronal cells transfected with a reporter construct under a constitutive promoter. SH-SY5Y neuronal cells stably transfected with a Renilla luciferase construct under the SV40 promoter were seeded in 96-well plates at a density of 2,5 x 10^4 cells per well. Following overnight incubation the cells were stimulated with medium containing thiabendazole or vehicle. Staurosporine (0,5 µM) served as positive control. The Renilla luciferase activity was measured 5 h later using a luminometer (Berthold Technologies, Mithras LB 940). Thiabendazole was tested in a range from 0,8 µM to 50 µM final concentration.
Analogously, thiabendazole (A; Sigma) and various derivatives thereof (2-(1,3-thiazol-5-yl)-benzimidazole (B; ChemBridge Corporation), 4-(benzimidazol-2-yl)-1,3-thiazol-2-amine (C; ChemBridge Corporation), 2-(2-thienyl)-benzimidazole (D; ChemBridge Corporation), or 2-(1,3-thiazol-4-yl)-benzimidazole-5-ol (E; Witega GmbH), Fig. 8) have been analysed for their effect on the viability of neuronal cells. The compounds were tested in a final concentration of 1 µM and of 10 µM.

SH-SY5Y cells [2] = experiment: In vitro anti-apoptosis assay (Caspase-Glo 3/7) on SH-SY5Y cells with staurosporine; type: cell-based, human; settings: for staurosporine induced apoptosis (caspase-3 and caspase-7 activity): sham 10 %
Excerpt: as §1, §2
The human neuroblastoma cell-line SH-SY5Y (American Type Culture Collection) maintained in DMEM with high glucose supplemented with 20% FBS was used for the apoptosis assay. Alternatively one can analyse the apoptosis of primary cortical neurons which can be isolated from E18 rats and subsequently cultivated in suitable culture medium. 2,5 x 10^4 SH-SY5Y cells were seeded in 96-well plates and stimulated 24 h later with thiabendazole or vehicle in the presence of the apoptosis inducing compound staurosporine (0,1 µM, Calbiochem). After 5h incubation at 37 °C, caspase-Glo 3/7 reagent (Promega) containing luciferase and luminogenic substrate was added to the cells. The cleavage of the substrate by caspase-3 and caspase-7 was detected 30 min later using a luminometer (Berthold Technologies, Mithras LB 940). The Luminescence which is proportional to the amount of caspase activity serves as a measure for the apoptosis of the treated neurons. Thiabendazole was tested in a range from 0,8 µM to 100 µM final concentration.
Incubation with staurosporine (SP; 0,5 µM) alone served as positive control and incubation with vehicle (sham) served as negative control.

[3] = mouse; cited from earlier work
[4] = rat; cited from earlier work
[5] = rabbit; cited from earlier work
[6] = pH 7.0; cited from earlier work
[7] = biological target: cytochrom P450 1A2 (CyP1A2) (Homo sapiens, UniProt P05177); settings: cited from earlier work
[8] = man, oral, in 48 hours; cited from earlier work
[9] = final concentrations of 1 µM and 10 µM, Fig. 4
[10] = compound 1 µM plus staurosporine 0,5 µM, Fig. 6

cytochrom P450 1A2 (CyP1A2), sequence (P05177 whole entry, species assumed): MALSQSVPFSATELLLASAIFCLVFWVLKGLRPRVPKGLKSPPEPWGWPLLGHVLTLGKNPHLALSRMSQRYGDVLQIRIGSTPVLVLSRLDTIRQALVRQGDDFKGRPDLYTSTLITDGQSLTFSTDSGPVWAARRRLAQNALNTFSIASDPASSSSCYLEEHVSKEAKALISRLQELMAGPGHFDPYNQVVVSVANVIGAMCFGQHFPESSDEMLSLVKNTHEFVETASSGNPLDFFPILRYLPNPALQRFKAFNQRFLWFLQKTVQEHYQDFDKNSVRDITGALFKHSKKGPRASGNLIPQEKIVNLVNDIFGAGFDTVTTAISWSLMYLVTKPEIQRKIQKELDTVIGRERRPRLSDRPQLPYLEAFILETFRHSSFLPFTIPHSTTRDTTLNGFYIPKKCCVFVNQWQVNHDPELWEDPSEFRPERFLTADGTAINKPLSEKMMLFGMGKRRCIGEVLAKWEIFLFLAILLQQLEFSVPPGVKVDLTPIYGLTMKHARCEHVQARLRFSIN

SMILES: c1ccc2[nH]c(-c3cncs3)nc2c1 [B, 2-(1,3-thiazol-5-yl)-benzimidazole]
- differentiation of neural stem cells to neurons (relative induction of the class III β-tubulin gene promoter controlled luciferase signal) (neural stem cells; [9]): significantly stimulate the differentiation of neural stem cells to neurons
- degree of apoptosis relative to the staurosporine control (primary cortical neurons; [10]): 55%
- degree of apoptosis relative to the staurosporine control (SH-SY5Y cells [1]): 65%

SMILES: Nc1nc(-c2nc3ccccc3[nH]2)cs1 [C, 4-(benzimidazol-2-yl)-1,3-thiazol-2-amine]
- differentiation of neural stem cells to neurons (relative induction of the class III β-tubulin gene promoter controlled luciferase signal) (neural stem cells; [9]): significantly stimulate the differentiation of neural stem cells to neurons
- degree of apoptosis relative to the staurosporine control (primary cortical neurons; [10]): 52%
- viability of neuronal cells (Renilla luciferase activity) (SH-SY5Y neuronal cells): did not show any significantly reduced viability
- degree of apoptosis relative to the staurosporine control (SH-SY5Y cells [1]): 46%

SMILES: CN[C@@H]1C[C@H]2O[C@@](C)([C@@H]1OC)n1c3ccccc3c3c4c(c5c6ccccc6n2c5c31)C(=O)NC4 [staurosporine]
- staurosporine induced apoptosis (caspase-3 and caspase-7 activity) (SH-SY5Y cells [2]; 0,1 µM staurosporine alone (reference, set to 100 %)): 100%
- degree of apoptosis relative to the staurosporine control (SH-SY5Y cells [2]; SH-SY5Y cells, staurosporine 0,5 µM alone (positive control), sham 26 %): 100%
- degree of apoptosis relative to the staurosporine control (primary cortical neurons; staurosporine 0,5 µM alone (positive control)): 100%

SMILES: Oc1ccc2nc(-c3cscn3)[nH]c2c1 [E, 2-(1,3-thiazol-4-yl)-benzimidazole-5-ol]
- differentiation of neural stem cells to neurons (relative induction of the class III β-tubulin gene promoter controlled luciferase signal) (neural stem cells; [9]): significantly stimulate the differentiation of neural stem cells to neurons
- degree of apoptosis relative to the staurosporine control (primary cortical neurons; [10]): 60%
- degree of apoptosis relative to the staurosporine control (SH-SY5Y cells [1]): 83%

SMILES: c1csc(-c2nc3ccccc3[nH]2)c1 [D, 2-(2-thienyl)-benzimidazole]
- differentiation of neural stem cells to neurons (relative induction of the class III β-tubulin gene promoter controlled luciferase signal) (neural stem cells; [9]): significantly stimulate the differentiation of neural stem cells to neurons
- degree of apoptosis relative to the staurosporine control (primary cortical neurons; [10]): 49%
- degree of apoptosis relative to the staurosporine control (SH-SY5Y cells [1]): 65%

SMILES: c1ccc2[nH]c(-c3cscn3)nc2c1 [thiabendazole, 2-(4-thiazolyl)-benzimidazole]
- differentiation of neural stem cells to neurons (relative induction of the class III β-tubulin gene promoter controlled luciferase signal) (neural stem cells; 0,2 to 100 µM final concentration, 48hrs, Fig. 1): significantly stimulates the differentiation of neural stem cells to neurons
- differentiation of neural stem cells to neurons (relative induction of the class III β-tubulin gene promoter controlled luciferase signal) (neural stem cells; [9]): significantly stimulate the differentiation of neural stem cells to neurons
- staurosporine induced apoptosis (caspase-3 and caspase-7 activity) (SH-SY5Y cells [2]; 0,8 µM thiabendazole plus 0,1 µM staurosporine, 5h, staurosporine alone = 100 %): 60%
- staurosporine induced apoptosis (caspase-3 and caspase-7 activity) (SH-SY5Y cells [2]; 25 µM thiabendazole plus 0,1 µM staurosporine, 5h, staurosporine alone = 100 %): 10%
- staurosporine induced apoptosis (caspase-3 and caspase-7 activity) (SH-SY5Y cells [2]; 50 µM thiabendazole plus 0,1 µM staurosporine, 5h, staurosporine alone = 100 %): 4%
- staurosporine induced apoptosis (caspase-3 and caspase-7 activity) (SH-SY5Y cells [2]; 100 µM thiabendazole plus 0,1 µM staurosporine, 5h, staurosporine alone = 100 %): 3%
- staurosporine induced apoptosis (caspase-3 and caspase-7 activity) (SH-SY5Y cells [2]; 1,6 µM thiabendazole plus 0,1 µM staurosporine, 5h, staurosporine alone = 100 %): 59%
- staurosporine induced apoptosis (caspase-3 and caspase-7 activity) (SH-SY5Y cells [2]; 3,1 µM thiabendazole plus 0,1 µM staurosporine, 5h, staurosporine alone = 100 %): 44%
- staurosporine induced apoptosis (caspase-3 and caspase-7 activity) (SH-SY5Y cells [2]; 6,3 µM thiabendazole plus 0,1 µM staurosporine, 5h, staurosporine alone = 100 %): 28%
- staurosporine induced apoptosis (caspase-3 and caspase-7 activity) (SH-SY5Y cells [2]; 12,5 µM thiabendazole plus 0,1 µM staurosporine, 5h, staurosporine alone = 100 %): 19%
- degree of apoptosis relative to the staurosporine control (primary cortical neurons; [10]): 58%
- viability of the neuronal cells (Renilla luciferase activity) (SH-SY5Y neuronal cells; 0,8 µM to 50 µM final concentration, 5 h, Fig. 3): did not show any significant effect on the viability
- viability of neuronal cells (Renilla luciferase activity) (SH-SY5Y neuronal cells): did not show any significantly reduced viability
- degree of apoptosis relative to the staurosporine control (SH-SY5Y cells [1]): 68%
- apoptotic effect by themselves (SH-SY5Y cells [1]; compound without staurosporine): Neither thiabendazole nor derivatives thereof exhibited an apoptotic effect by themselves
- oral LD 50 [3]: 3,6 g/kg
- oral LD 50 [4]: 3,1 g/kg
- oral LD 50 [5]: 3,8 g/kg
- solubility in water [6]: approximately 50 mg/l
- inhibitor of cytochrom P450 1A2 (CyP1A2) [7]: potent inhibitor
- administered dose recovered from the feces [8]: about 5%
- administered dose recovered from the urine [8]: about 90%
